Source: patent US11332470B2, “CXCR4 inhibitors and uses thereof” (X4 Pharmaceuticals, Inc., priority 2016, dated 2022)

How the values were obtained:
[1] = target: T1, CXCR4 (Jurkat cells expressing CXCR4) (Homo sapiens, UniProt P61073); assay: Chemokine (CXCL12-AF647) binding inhibition assay; conditions: CXCL12-AF647 25 ng/mL, read-out: IC50 CXCL-12 binding Jurkat
T1 construct: Jurkat cells expressing CXCR4; endogenous in cells; host or cells: Jurkat
Description: Chemokine (CXCL12-AF647) Binding Inhibition Assay
Jurkat cells expressing CXCR4 were washed once with assay buffer (Hanks' balanced salt solution with 20 mM HEPES buffer and 0.2% bovine serum albumin, pH 7.4) and then incubated for 15 min at room temperature with the test compounds diluted in assay buffer at dose-dependent concentrations. Subsequently, CXCL12-AF647 (25 ng/mL) was added to the compound-incubated cells. The cells were incubated for 30 min at room temperature. Thereafter, the cells were washed twice in assay buffer, fixed in 1% paraformaldehyde in PBS, and analyzed on the FL4 channel of a FACSCalibur flow cytometer equipped with a 635-nm red diode laser (Becton Dickinson, San Jose, Calif., USA).
The percentages of inhibition of CXCL12-AF647 binding were calculated according to the formula: [1−((MFI−MFINC)/(MFIPC−MFINC))]×100 where MFI is the mean fluorescence intensity of the cells incubated with CXCL12-AF647 in the presence of the inhibitor, MFINC is the mean fluorescence intensity measured in the negative control (i.e., autofluorescence of unlabeled cells), and MFIPC is the mean fluorescence intensity of the positive control (i.e., cells exposed to CXCL12-AF647 alone).

CXCR4 (U87.CXCR4 cells) = target: T2, CXCR4 (U87.CXCR4 cells) (Homo sapiens, UniProt P61073); assay: Intracellular CXCL-12-induced calcium mobilization assay (FLIPR); format: cell-based; conditions: CXCL-12 25-50 ng/mL, read-out: IC50 CXCL-12 Ca2+ flux U87.CXCR4+
T2 construct: expressed in transfected cells; host or cells: U87 (U87.CXCR4)
Description: Intracellular CXCL-12-Induced Calcium Mobilization Assay
Intracellular calcium mobilization induced by chemokines or chemokine-derived peptides were evaluated using a calcium responsive fluorescent probe and a FLIPR system. The CXCR-4 transfected U87 cell line (U87.CXCR4) cells were seeded in gelatine-coated black-wall 96-well plates at 20,000 cells per well and incubated for 12 hours. Cells were then loaded with the fluorescent calcium probe Fluo-2 acetoxymethyl at 4 μM final concentration in assay buffer (Hanks' balanced salt solution with 20 mM HEPES buffer and 0.2% bovine serum albumin, pH 7.4) for 45 min at 37° C. The intracellular calcium mobilization induced by the CXCL-12 (25-50 ng/mL) was then measured at 37° C. by monitoring the fluorescence as a function of time in all the wells simultaneously using a fluorometric imaging plate reader (FLIPR Tetra, Molecular Devices).

T1 sequence (P61073 whole entry): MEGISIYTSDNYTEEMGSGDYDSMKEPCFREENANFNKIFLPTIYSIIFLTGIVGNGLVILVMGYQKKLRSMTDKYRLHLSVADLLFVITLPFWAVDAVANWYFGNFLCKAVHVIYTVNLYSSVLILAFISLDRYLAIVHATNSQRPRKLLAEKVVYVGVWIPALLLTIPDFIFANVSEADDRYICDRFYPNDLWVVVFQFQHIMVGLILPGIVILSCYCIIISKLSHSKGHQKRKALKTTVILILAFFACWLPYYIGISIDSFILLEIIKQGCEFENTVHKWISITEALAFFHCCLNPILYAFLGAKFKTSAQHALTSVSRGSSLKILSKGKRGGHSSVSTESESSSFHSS
T2 sequence (P61073 whole entry): as above

Structure (SMILES) | IC50 [1] [nM] | IC50 (CXCR4 (U87.CXCR4 cells)) [nM]
CN1CCN(c2cccc3nc(C4CCCCN4Cc4ccccc4-n4cccn4)[nH]c23)CC1 (centres unmarked) [Compound I-3, 2-(1-(2-(1H-pyrazol-1-yl)benzyl)piperidin-2-yl)-7-(4-methylpiperazin-1-yl)-1H-benzo[d]imidazole] | ≥ 1000 | ≥ 1000
CN1CCN(c2cccc3[nH]c(C4CCCN4Cc4ccccc4-n4cccn4)nc23)CC1 (centres unmarked) [Compound I-5, 2-(1-(2-(1H-pyrazol-1-yl)benzyl)pyrrolidin-2-yl)-7-(4-methylpiperazin-1-yl)-1H-benzo[d]imidazole] | ≥ 1000 | ≥ 1000
Cc1cccnc1C1CCCN1Cc1ncccc1-n1cccn1 (centres unmarked) [Compound I-66] | 100 to 1000 | ≥ 1000
c1ccc(C2CCCN2Cc2ncccc2-n2cccn2)nc1 (centres unmarked) [Compound I-67] | ≥ 1000 | ≥ 1000
Cc1cccnc1C1CCCN1Cc1nc2cccc(N3CCN(C)CC3)c2o1 (centres unmarked) [Compound I-71] | 100 to 1000 | ≥ 1000
Cc1cccnc1C1CCCN1Cc1nc2c(N3CCN(C)CC3)cccc2o1 (centres unmarked) [Compound I-72] | ≥ 1000 | ≥ 1000
Cc1cccnc1C1CCCN1Cc1cc2c(N3CCN(C)CC3)cccc2o1 (centres unmarked) [Compound I-73] | 100 to 1000 | ≥ 1000
Cc1cccnc1C1CCCN1C(=O)c1cn2c(N3CCN(C)CC3)cccc2n1 (centres unmarked) [Compound I-74] | ≥ 1000 | ≥ 1000
Cc1cccnc1CN1CCCC1c1nc2ccccc2n1C1CCN(C)CC1 (centres unmarked) [Compound I-77] | 0.01 to 100 | ≥ 1000
CN1CCC(n2c(C3CCCN3Cc3ccccn3)nc3ccccc32)CC1 (centres unmarked) [Compound I-78] | 0.01 to 100 | ≥ 1000
Cc1cccnc1C1CCCN1Cc1nc2ccccn2c1CCC#N (centres unmarked) [Compound I-81] | 100 to 1000 | ≥ 1000
Cc1cccnc1C1CCCN1Cc1cccc(C(=O)Nc2ccncc2)n1 (centres unmarked) [Compound I-90] | 100 to 1000 | ≥ 1000
OCc1c(CN2CCCC2c2ccccn2)nc2ccccn12 (centres unmarked) [Compound I-93] | 100 to 1000 | ≥ 1000
c1ccc(C2CCCN2Cc2nc3ccccn3c2COc2cccnc2)nc1 (centres unmarked) [Compound I-95] | ≥ 1000 | ≥ 1000
Cc1cccnc1CN1CCCC1c1nc2ccccn2c1N1CCN(C)CC1 (centres unmarked) [Compound I-100] | 0.01 to 100 | 0.01 to 100
Cc1cccnc1C1CCCN1Cc1nccn1-c1ccccn1 (centres unmarked) [Compound I-113] | ≥ 1000 | ≥ 1000
Cc1cccnc1C1CCCN1Cc1nccn1-c1cccnc1 (centres unmarked) [Compound I-114] | 100 to 1000 | ≥ 1000
Cc1cccnc1C1CCCN1Cc1nccn1-c1ccncc1 (centres unmarked) [Compound I-115] | 100 to 1000 | ≥ 1000
Cc1cccnc1C1CCCN1Cc1cccc(CC2CCN(C)CC2)n1 (centres unmarked) [Compound I-116] | ≥ 1000 | ≥ 1000
Cc1cccnc1C1CCCN1Cc1nccn1C(=O)N1CCN(C)CC1 (centres unmarked) [Compound I-125] | 100 to 1000 | ≥ 1000
Cc1cccnc1CN1CCCC1c1cn2c(N3CCN(CC(F)(F)F)CC3)cccc2n1 (centres unmarked) [Compound I-129] | ≥ 1000 | ≥ 1000
c1ccc(C2CCCN2Cc2nc3ccccn3c2N2CCN(c3ccncc3)CC2)nc1 (centres unmarked) [Compound I-133] | 100 to 1000 | ≥ 1000
